Test results taken from patent EP4458977A1, “SELF-ASSEMBLING PEPTIDE AMPHIPHILES AS RETROVIRAL TRANSDUCTION ENHANCERS” (Max-Planck-Gesellschaft zur Förderung der Wissenschaften …, priority 2023, dated 2024).
Entries after “also recorded” stand apart in the source; their conditions may differ. Where a SMILES comes first, the peptide text is derived from it. Where no end group is shown, it is not given here. The star is where a group is joined. X2 = CC/C=C\C/C=C\C/C=C\CCCCCCCC(=O)*; Palmitoyl = CCCCCCCCCCCCCCCC(=O)*

How the values were obtained:
[1] = Zeta-potential measurement (dynamic light scattering); type: physicochemical
Method: Zeta-potential: 60 µL of the peptides (1 mg mL-1) were diluted in 600 µL, 1 mM KCI solution and placed in a disposable folded capillary cuvette. All zeta-potential measurements were conducted by dynamic light scattering technology (Zetasizer, Malvern Instruments) and in triplicates for each sample. The derived count rate of the zeta potential measurement was used as information on the light scattering intensity and turbidity of the sample as a further indicator for microscopic aggregation.

[2] = TEM of peptide assemblies (fibril formation / assembly); type: physicochemical; conditions: for TEM morphology (in words): 1 mg/mL in PBS; for Assembly without hydrophob residue: corresponding peptide without hydrophobic moiety; for Assembly: peptide amphiphile
Method: The peptides were predissolved in DMSO to a concentration of 10 mg/mL. The fibril formation was induced by further diluting the solution to a final incubation concentration of 650 µM or 1 mg/mL in PBS as indicated in the text and incubated for 1 d (1 day) at rt (room temperature, 20 °C - 25 °C). Other concentrations as described herein were achieved by further dilution of preformed fibrils.
(§1) Transmission electron microscopy (TEM) measurements, Thioflavin (ThT), zeta-potential measurements for fibril characterization were prepared and conducted according to prior art procedures. […] Fibrils were defined as distinct, if no visible structures could be identified in fluorescence and brightfield microscopy.

HIV-1 = conditions: for Infectivity enhancing N fold at 1.3 µM: relative to virus only; for enhancement of HIV-1 infection / transduction (in words): 6.5 µM, 1.3 µM, 0.26 µM;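 on all read-outs here: TZM-bl reporter cells exposed to HIV-1 with peptide fibrils, infection read out as β-galactosidase luminescence, compared with virus alone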
Method: HIV-1 Infection Assay with TZM-bl cells: The effect of peptide fibrils on HIV-1 infection was studied via a luminescence assay for β-galactosidase, which was reported by TZM-bl cells upon infection. The HIV-1 infection assay was conducted in three technical replicates and repeated in three independent experiments unless stated otherwise.

[3] = ATR-FT-IR determination of β-sheet content; type: physicochemical; conditions: 1 mg/mL in PBS lyophilized; integral at 1630 cm^-1 relative to 1650-1700 cm^-1
Method: ATR-FT-IR: ATR-IR spectra acquisition and the calculation of β-sheet content were conducted according prior art procedures. Briefly, FT-IR spectra of solid samples were recorded after lyophilization of fibril solutions using a Bruker Tensor II spectrometer equipped with a diamond crystal as ATR element with a spectral resolution of 2 cm^-1, each spectrum was an average of 64 scans. The data was processed with Origin software. β-sheet amount was determined by calculating the integral of the peak at 1630 cm-1 (β-sheet) relative to the integral between 1650-1700 cm-1 (native structure) from the 2nd derivative of the FT-IR spectra.

HeLa cells = test: Confocal laser scanning microscopy and degradation study with PA library and HeLa cells; type: cell-based; conditions: for association with cellular membranes: 2 µg added to 20.000 HeLa cells, 30 min; for degradability (in words): 3 days
Method: In general, the procedure for determine whether a PA is degraded or not, is conducted by confocal laser scanning microscopy of Proteostat stained PAs which are added to Hela cells (2 µg peptide added to 20.000 cells). Microscopy is conducted at day 0 (d0, after 30 min of incubation) and at day 3 (d3, after 72 h of incubation). The number of aggregates >10 µm^2 is counted via 3D object counter in imaged in an area of 1008 µm × 1008 µm.
A PA is considered to be degradable if the number and the size of aggregates are reduced after 3 days. The efficiency is determined by the percentual degradation (aggregate number at d3 / aggregate number at d0). For the number of aggregation three technical replicates were evaluated for each sample. A large deviation represents a nonhomogeneous spatial distribution of aggregates.
Confocal laser scanning microscopy and degradation study with PA library and HeLa cells: Confocal laser scanning microscopy studies were performed for the visualization of the cell-PA interaction. HeLa cells were seeded one day prior to conducting the assay (20,000/well) in an 8-well IBIDI slide. […] The nucleus of the HeLa cells was stained with Hoechst 33342 (NucBlue™, Thermo Fisher Scientific). The peptide solution mixture was transferred to the HeLa cells and incubated for 30 min at 37°C before washing three times with PBS. […] For the evaluation of aggregate degradation, the samples were further incubated at 37°C for 3 d and analyzed without any additional washing step. […] The number of aggregates were determined by counting aggregates larger than the threshold 10 µm^2 in an area of 1008 × 1008 µm and repeated in three technical triplicates.

[4] = Fluorescence microscopy of ThT-stained fibrils (µm-sized aggregates); type: physicochemical; conditions: 1 mg/mL stained with 50 µM ThT
Method: as §1
Fluorescence microscopy: 1 µL Fibrils (1 mg mL^-1) were stained with 9 µL, 50 µM ThT. 10 µL of the stained fibrils (0.1 mg mL^-1) were placed on a microscopy glass. Fluorescence microscopy measurements were performed on a Leica DMi8 microscope with 10x air objective and equipped with a Leica MC170 HD camera with a filter setting λem = 527/30 nm upon excitation at λex = 480/40 nm) and processed with the Leica LASX software.

Row | Compound | zeta-potential (in words) [1] | TEM morphology (in words) [2] | Assembly without hydrophob residue [2] | Assembly [2] | Infectivity enhancing N fold at 1.3 µM (HIV-1) | β-sheet amount [3] | association with cellular membranes (HeLa cells) | fluorescent, µm-sized aggregates (ThT staining) [4] | infectivity enhancement at 1.3 µM concentration compared to virus only infection (in words) (HIV-1) | enhancement of HIV-1 infection / transduction (in words) (HIV-1) | degradability (in words) (HeLa cells; HeLa cells) | Degradability / % (rel. to initial particles > 10 µm^2) (HeLa cells; HeLa cells, 3 d relative to 30 min) | aggregate number increases (HeLa cells; d3 relative to d0) | enhances infectivity at 1.3 µM concentration, times more efficient compared to virus only infection (HIV-1) | TEM morphology (in words) ([2]; listed as NFYLQVNKINK) | aggregate number decreases / degraded in presence of HeLa cells within 3 days (HeLa cells; d3 relative to d0)
1 | CC/C=C\C/C=C\C/C=C\CCCCCCCC(=O)N[C@H](C(=O)N[C@H](C(=O)N[C@H](C(=O)N[C@@H](C)C(=O)N[C@@H](C)C(=O)N[C@@H](C)C(=O)N[C@@H](CCCCN)C(=O)N[C@@H](CCCCN)C(=O)N[C@@H](CCCCN)C(N)=O)C(C)C)C(C)C)C(C)C [Pat9] (X2-VVVAAAKKK-NH2) | almost neutral zeta-potential | failed to form fibrils in aqueous medium | No | No | 1±0 N fold | – | – | – | – | – | – | – | – | – | – | –
2 | CCCCCCCCCCCCCCCC(=O)NCC(=O)N[C@@H](CCCCN)C(=O)N[C@H](C(=O)NCC(=O)N[C@@H](CO)C(=O)N[C@@H](CCCCN)C(N)=O)C(C)C [Pat30, C16-GKVGSK-NH2] (Palmitoyl-GKVGSK-NH2) | – | fibrillar morphologies | No | Yes | 2±1 N fold | 41% | no association with cellular membranes | less fluorescent, µm-sized aggregates | does not enhance infectivity | do not efficiently enhance infectivity | – | – | – | – | – | –
3 | CCCCCCCCCCCCCCCC(=O)N[C@@H](CCCCN)C(=O)N[C@H](C(=O)N[C@H](C(=O)N[C@@H](CO)C(=O)N[C@@H](Cc1ccccc1)C(=O)N[C@@H](CCCCN)C(N)=O)[C@@H](C)CC)[C@@H](C)CC [Pat32, C16-KIISFK-NH2] (Palmitoyl-KIISFK-NH2) | – | fibrillar morphologies | No | Yes | 2±1 N fold | 46% | association with cellular membranes | fluorescent, µm-sized aggregates | does not enhances infectivity | – | cannot be degraded; also recorded: not efficiently degradable; also recorded: non-degradable PA | -84% | 84% | – | – | –
4 | C16-disulfide-CVVVAAAKKK-NH2 (not fully specified (residue 1); printed as C16-disulfide-CVVVAAAKKK-NH2) [Pat2] | – | fibrillar morphologies | No | Yes | 4±2 N fold | 57% | no visible association with cellular membranes | fluorescent, µm-sized aggregates | – | weak enhancers of HIV-1 infection | – | – | – | 4 times | – | –
5 | NFYLQVNKINK-NH2 [Pat46] | – | fibrillar morphologies | – | – | – | 49% | association with cellular membranes | fluorescent, µm-sized aggregates | – | potent enhancers of HIV-1 infection | not efficiently degradable; also recorded: non-degradable PA | – | – | – | unexpectedly forming fibrils by themselves | stays also similar
